In patent US20180168208A1 (priority 2014, published 2018):
Like-named read-outs stand apart in the source and are kept apart here.

Experiments:
[1] = molecular target: T1, cat T1R1/T1R3 receptor (Felis catus, UniProt A0ABI7Z2I4); assay: cell-based; conditions: for function as activators of T1R1/T1R3 (in words): in the presence of alanine
T1 sequence (A0ABI7Z2I4 171-420): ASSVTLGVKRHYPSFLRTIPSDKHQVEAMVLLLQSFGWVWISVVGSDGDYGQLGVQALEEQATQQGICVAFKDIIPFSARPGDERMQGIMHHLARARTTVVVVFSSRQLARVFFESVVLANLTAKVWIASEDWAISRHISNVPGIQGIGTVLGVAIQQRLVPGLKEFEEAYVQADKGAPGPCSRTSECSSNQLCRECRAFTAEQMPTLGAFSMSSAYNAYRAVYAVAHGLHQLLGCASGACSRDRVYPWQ
T1 sequence (Q49KI5 25-865 E206Q/N523D/F654L partner): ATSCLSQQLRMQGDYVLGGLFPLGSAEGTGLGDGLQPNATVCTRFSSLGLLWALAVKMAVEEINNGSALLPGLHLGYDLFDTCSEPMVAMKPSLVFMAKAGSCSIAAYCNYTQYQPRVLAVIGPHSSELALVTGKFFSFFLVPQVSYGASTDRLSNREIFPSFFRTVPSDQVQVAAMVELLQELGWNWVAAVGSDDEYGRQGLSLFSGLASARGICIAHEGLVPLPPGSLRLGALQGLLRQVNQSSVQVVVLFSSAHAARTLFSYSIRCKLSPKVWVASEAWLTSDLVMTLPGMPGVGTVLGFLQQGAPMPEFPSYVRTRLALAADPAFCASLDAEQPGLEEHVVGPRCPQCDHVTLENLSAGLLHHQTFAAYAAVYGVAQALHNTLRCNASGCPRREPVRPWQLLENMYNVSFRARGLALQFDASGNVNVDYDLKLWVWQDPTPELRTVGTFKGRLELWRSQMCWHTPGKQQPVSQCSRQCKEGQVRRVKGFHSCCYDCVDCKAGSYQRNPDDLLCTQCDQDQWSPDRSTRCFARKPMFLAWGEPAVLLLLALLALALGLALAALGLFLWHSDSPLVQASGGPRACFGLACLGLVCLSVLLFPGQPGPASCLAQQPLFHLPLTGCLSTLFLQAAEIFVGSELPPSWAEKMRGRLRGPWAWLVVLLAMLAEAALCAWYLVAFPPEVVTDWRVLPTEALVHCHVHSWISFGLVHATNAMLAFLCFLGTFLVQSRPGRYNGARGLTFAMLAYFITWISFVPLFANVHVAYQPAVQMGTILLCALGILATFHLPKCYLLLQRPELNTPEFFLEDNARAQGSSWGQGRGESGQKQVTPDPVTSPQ
Text: (§1) HEK293 cells that stably express T1R3 and inducibly express T1R1 were exposed to nucleotide derivatives alone or in combination with one or more amino acids and/or one or more nucleotides to activate the umami receptor. Activation of the T1R1/T1R3 receptor was detected by a change in intracellular calcium levels using a calcium sensitive fluorescent dye and/or a luminescent reporter system. Cells that express T1R3 but not T1R1 were used as a control. A FLIPR® Tetra or a FlexStation® 3 was used for data capture.

[2] = molecular target: T1R1/T1R3 receptor (Felis catus, UniProt E3UMS2); assay: cell-based; format: cell-based
Text: as §1, with “transmembrane compounds” for “nucleotide derivatives”, “dye.” for “dye and/or a luminescent reporter system.”
In each experiment, serial dilutions of up to 10 mM of the transmembrane compound were added to the T1R1/T1R3-expressing cells.

Nc1ncnc2c1ncn2[C@H]1C[C@H](O)[C@@H](COP(=O)(O)O)O1 [2′-Deoxyadenosine 5′-monophosphate]
Activity [1]: active | EC50 [1]: 140 µM | Threshold [1]: 0.035 mM

Nc1ncnc2c1ncn2[C@H]1C[C@H](OP(=O)(O)O)[C@@H](COP(=O)(O)O)O1 [2′-Deoxyadenosine-3′,5′-O-bisphosphate]
Activity [1]: active

Nc1ncnc2c1ncn2C1CC(O)C(COP(O)(O)=S)O1 (stereo not shown) [2′-Deoxyadenosine-5′-O-monophosphorothioate]
Activity [1]: active | Threshold [1]: 0.015 mM

Nc1nc2c(ncn2C2CC(OP(=O)(O)O)C(COP(=O)(O)O)O2)c(=O)[nH]1 (stereo not shown) [2′-Deoxyguanosine-3′,5′-O-bisphosphate]
Activity [1]: active | Max resp. (ΔF/F) [1]: 1.8925 ΔF/F | Max. resp. % of IMP [1]: 152.3 % of IMP | Threshold [1]: 0.005 mM | function as activators of T1R1/T1R3 (in words) [1]: activators of T1R1/T1R3

Nc1nc2c(ncn2C2CC(O)C(COP(O)(O)=S)O2)c(=O)[nH]1 (stereo not shown) [2′-Deoxyguanosine-5′-O-monophosphorothioate]
Activity [1]: active | Max resp. (ΔF/F) [1]: 1.0775 ΔF/F | Max. resp. % of IMP [1]: 86.7 % of IMP | Threshold [1]: 0.0025 mM | function as activators of T1R1/T1R3 (in words) [1]: activators of T1R1/T1R3

Nc1nc2c(ncn2[C@H]2C[C@H](O)[C@@H](COP(O)(O)=S)O2)c(=O)[nH]1 [2′-Deoxyguanosine-5′-O-monophosphorothioate]
Activity [1]: active | Threshold [1]: 0.005 mM | function as activators of T1R1/T1R3 (in words) [1]: activators of T1R1/T1R3

O=c1[nH]cnc2c1ncn2C1CC(O)C(COP(O)(O)=S)O1 (stereo not shown) [2′-Deoxyinosine-5′-O-monophosphorothioate]
Activity [1]: active | Threshold [1]: 0.025 mM

O=c1ccn([C@H]2C[C@H](O)[C@@H](COP(O)(O)=S)O2)c(=O)[nH]1 [2′-Deoxyuridine-5′-O-monophosphorothioate (5′-dUMPS)]
Max resp. (ΔF/F) [1]: 0.4200 ΔF/F | Max. resp. % of IMP [1]: 43.4 % of IMP | Threshold [1]: 5.000 mM

O=c1ccn([C@H]2C[C@H](O)[C@@H](COP(O)(O)=S)O2)c(=O)[nH]1 [2′-Deoxyuridine-5′-O-monophosphorothioate]
EC50 [1]: > 30000 µM

O=c1ccn([C@H]2C[C@H](O)[C@@H](COP(O)(O)=S)O2)c(=O)[nH]1 [2′-Deoxyuridine-5′-O-monophosphosphorothioate (5′-dUMPS)]
Activity [1]: active | Max resp. (ΔF/F) [1]: 0.4200 ΔF/F | Max. resp. % of IMP [1]: 43.4 % of IMP | Threshold [1]: 5.000 mM

NC(=O)c1ncn(C2OC(COP(=O)(O)O)C(O)C2O)c1N [5-Aminoimidazole-4-carboxamide-1-β-D-ribofuranosyl 5′-monophosphate]
Activity [1]: active | EC50 [1]: > 1000 µM | Threshold [1]: 0.200 mM

O=P(O)(O)OCC1OC(n2cnc3c(Cl)ncnc32)C(O)C1O (stereo not shown) [6-Chloropurineriboside-5′-O-monophosphate]
Activity [1]: active | Max resp. (ΔF/F) [1]: 1.5325 ΔF/F | Max. resp. % of IMP [1]: 123.3 % of IMP

CCC(CC)NC(=O)c1ccc2c(c1)OCCO2 [N-(pentan-3-yl)-2,3-dihydrobenzo[b][1,4]dioxine-6-carboxamide]
Thres +Alanine ([2]; + Alanine (20 nM), Table 17): 0.3 mM | Max resp % of IMP + Alanine ([2]; + Alanine, Table 17): 25.2 % of IMP | Max resp ΔF/F +Alanine ([2]; + Alanine, Table 17): 0.3125 | EC50 ([2]; + Alanine, Table 17, read-out: EC50 + Alanine): > 1000 µM | Max resp % of ALa + IMP ([2]; + IMP (0.2 mM), Table 17): 70.9 % of ALa | Thres + IMP ([2]; + IMP (0.2 mM), Table 17): 0.075 mM | Max resp ΔF/F +Alanine ([2]; +Alanine (20 mM), Table 18): 0.3125 | Thres +Alanine ([2]; +Alanine (20 mM), Table 18): 0.3 mM | EC50 ([2]; +Alanine (20 mM), Table 18, read-out: EC50 +Alanine): > 1000 µM | Max resp % of Ala +IMP ([2]; +IMP (0.2 mM), Table 18): 70.9 % of Ala | Max resp ΔF/F +IMP ([2]; +IMP (0.2 mM), Table 18): 0.8725 | EC50 ([2]; EC50 + IMP, + IMP (0.2 mM), Table 17): 300 µM | EC50 ([2]; EC50 +Alanine + IMP, +Alanine (20 mM) + IMP (0.2 mM), Table 18): 200 µM | EC50 ([2]; EC50 +IMP, +IMP (0.2 mM), Table 18): 300 µM | EC50 ([2]; compound alone in buffer, Table 17, read-out: EC50 + buffer (alone)): > 1000 µM | EC50 ([2]; compound alone in buffer, Table 18, read-out: EC50 +buffer (alone)): > 1000 µM

N[C@@H](Cc1ccccc1)C(=O)O [Phenylalanine, phenylalanine]
EC50 ([2]; EC50 - with IMP (0.2 mM), with 0.2 mM IMP): 3400 ± 700 µM
